Source: the supplement of paper PMC8149375

What was measured:
Settings in all cases: treatment: drug alone; 5 days
UO-31 [1] = test: AUC of dose-response viability curve, drug alone (arbitrary (AUC of normalised viability)); higher = less growth inhibition
Method: (§1)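 Primary HTS: 8 RCC cell lines treated with 8 doses (up to 10 uM) of each library drug alone for 5 days; viability read by CellTiter-Glo and normalised to DMSO. GI50 was fitted with XLfit (4-parameter), AUC is the area under the dose-response curve, and minimum viability is the lowest fraction of DMSO viability across doses.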

CAKI-1 [2] = test: as above
Method: as §1

ACHN [3] = test: as above
Method: as §1

769-P [4] = test: as above
Method: as §1

786-O [5] = test: as above
Method: as §1

SN12C [6] = test: as above
Method: as §1

A498 [7] = test: as above
Method: as §1

TK-10 [8] = test: as above
Method: as §1

UO-31 [9] = test: minimum viability across doses, drug alone, relative to DMSO (fraction); higher = less growth inhibition
Method: as §1

CAKI-1 [10] = test: as above
Method: as §1

ACHN [11] = test: as above
Method: as §1

769-P [12] = test: as above
Method: as §1

786-O [13] = test: as above
Method: as §1

SN12C [14] = test: as above
Method: as §1

A498 [15] = test: as above
Method: as §1

TK-10 [16] = test: as above
Method: as §1

UO-31 [17] = test: GI50, drug alone; higher = less potent
Method: as §1

CAKI-1 [18] = test: GI50, drug alone; higher = less potent
Method: as §1

ACHN [19] = test: GI50, drug alone; higher = less potent
Method: as §1

769-P [20] = test: GI50, drug alone; higher = less potent
Method: as §1

786-O [21] = test: GI50, drug alone; higher = less potent
Method: as §1

SN12C [22] = test: GI50, drug alone; higher = less potent
Method: as §1

A498 [23] = test: GI50, drug alone; higher = less potent
Method: as §1

TK-10 [24] = test: GI50, drug alone; higher = less potent
Method: as §1

Row | SMILES | AUC of dose-response viability curve (UO-31 [1]) | AUC of dose-response viability curve (CAKI-1 [2]) | AUC of dose-response viability curve (ACHN [3]) | AUC of dose-response viability curve (769-P [4]) | AUC of dose-response viability curve (786-O [5]) | AUC of dose-response viability curve (SN12C [6]) | AUC of dose-response viability curve (A498 [7]) | AUC of dose-response viability curve (TK-10 [8]) | minimum viability across doses (UO-31 [9]) | minimum viability across doses (CAKI-1 [10]) | minimum viability across doses (ACHN [11]) | minimum viability across doses (769-P [12]) | minimum viability across doses (786-O [13]) | minimum viability across doses (SN12C [14]) | minimum viability across doses (A498 [15]) | minimum viability across doses (TK-10 [16]) | GI50, drug alone (UO-31 [17]) | GI50, drug alone (CAKI-1 [18]) | GI50, drug alone (ACHN [19]) | GI50, drug alone (769-P [20]) | GI50, drug alone (786-O [21]) | GI50, drug alone (SN12C [22]) | GI50, drug alone (A498 [23]) | GI50, drug alone (TK-10 [24])
1 | COc1cc2ncnc(Nc3ccc(F)c(Cl)c3)c2cc1OCCCN1CCOCC1 [Gefitinib (Iressa)] | 4.31 | 3.04 | 2.4 | 2.66 | 3.22 | 3.15 | 4.53 | 2.43 | 0.872 | 0.281 | 0.179 | 0.536 | 0.781 | 0.693 | 1.05 | 0.269 | > 10000 nM | 5880 nM | 1240 nM | > 10000 nM | > 10000 nM | > 10000 nM | > 10000 nM | 1520 nM
2 | CN1CCN(C2CCN(C(=O)Nc3cc(Oc4ccc(NC(=O)C5(C(=O)Nc6ccc(F)cc6)CC5)c(F)c4)ccn3)CC2)CC1 [Golvatinib (E7050)] | 5.28 | 3.05 | 2.67 | 3.55 | 2.78 | 3.38 | 4.37 | 2.56 | 0.471 | 0.0988 | 0.0761 | 0.423 | 0.0352 | 0.346 | 0.613 | 0.284 | 9860 nM | 3060 nM | 1510 nM | 9710 nM | 4230 nM | 7830 nM | > 10000 nM | 2590 nM
3 | CCOC(=O)C1=C(N)Oc2ccc(Br)cc2[C@H]1[C@H](C#N)C(=O)OCC [HA14-1] | 4.2 | 3.67 | 3.35 | 3.84 | 3.27 | 3.19 | 3.57 | 3.55 | 0.891 | 0.957 | 0.852 | 0.973 | 0.81 | 0.867 | 0.885 | 0.948 | > 10000 nM | > 10000 nM | > 10000 nM | > 10000 nM | > 10000 nM | > 10000 nM | > 10000 nM | > 10000 nM
4 | COc1ccc(S(=O)(=O)N(C(C)=O)c2ccccc2/C=C/c2cc[n+]([O-])cc2)cc1 [HMN-214] | 2.75 | 2.1 | 2.14 | 2.36 | 1.3 | 2.47 | 2.36 | 2.14 | 0.00366 | 0.182 | 0.127 | 0.0968 | 0.00365 | 0.167 | 0.119 | 0.285 | 455 nM | 293 nM | 262 nM | 541 nM | 116 nM | 714 nM | 378 nM | 694 nM
5 | CCS(=O)(=O)Nc1ccc2c(c1)/C(=C(/Nc1ccc(CN3CCCCC3)cc1)c1ccccc1)C(=O)N2 [Hesperadin] | 3.32 | 1.85 | 1.63 | 2.53 | 1.54 | 1.86 | 3.72 | 2.46 | 0.0115 | 0.0394 | 0.00749 | 0.0547 | 0.0109 | 0.00306 | 0.0284 | 0.0523 | 2490 nM | 189 nM | 111 nM | 1180 nM | 63.9 nM | 199 nM | 2500 nM | 1460 nM
6 | O=C(Nc1cc(C(F)(F)F)cc(C(F)(F)F)c1)c1cc(Cl)ccc1O [IMD 0354] | 4.73 | 2.8 | 2.4 | 2.71 | 2.03 | 2.67 | 3.46 | 2.4 | 0.019 | 0.036 | 0.00484 | 0.0108 | 0.00771 | 0.00716 | 0.0128 | 0.0653 | 2960 nM | 1080 nM | 943 nM | 1290 nM | 412 nM | 1350 nM | 1590 nM | 1220 nM
7 | CC(C)n1nc(-c2ccc3oc(N)nc3c2)c2c(N)ncnc21 [INK 128] | 0.778 | 1.12 | 0.901 | 1.34 | 0.69 | 1.27 | 1.63 | 0.931 | 0.00678 | 0.0368 | 0.0484 | 0.0864 | 0.00552 | 0.0865 | 0.104 | 0.0249 | 25.2 nM | 34.4 nM | 15.2 nM | 50.4 nM | 6.65 nM | 39 nM | 71 nM | 12 nM
8 | Cc1ccc(NC(=O)c2ccc(CN3CCN(C)CC3)cc2)cc1Nc1nccc(-c2cccnc2)n1 [Imatinib (Gleevec)] | 4.67 | 3.35 | 3.41 | 3.23 | 2.36 | 3.06 | 3.83 | 3.07 | 1.03 | 0.891 | 0.802 | 0.858 | 0.514 | 0.77 | 0.919 | 0.829 | > 10000 nM | > 10000 nM | > 10000 nM | > 10000 nM | > 10000 nM | > 10000 nM | > 10000 nM | > 10000 nM
